This passage reports selectivity ratio, CC50 and EC50 results from ChEMBL document CHEMBL6103594, “Synthesis and evolution of 16-membered macrolide carrimycin derivatives as a novel class of anti-HCoV-OC43 agents targeting viral FSE RNA” (Eur J Med Chem, 2025).

A short description of series [1]: Selectivity index, ratio of CC50 for cytotoxicity against human NCI-H460 cells to EC50 for antiviral activity against HCoV-OC43 infected in human NCI-H460 cells. It counts as toxicity, cell-based, NCI-460. The conditions noted are these: read-out: Ratio CC50/EC50.
Series [2] can be described thus: Cytotoxicity against human NCI-H460 cells incubated for 72 hrs by CCK8 assay. It counts as toxicity, cell-based. Particulars: read-out: EC50. On the technique in general: Formazan colour is commonly taken as a measure of viable cells.
Another series concerns Human coronavirus OC43. Kind of series: Antiviral activity against HCoV-OC43 infected in human NCI-H460 cells incubated for 72 hrs by CCK8 assay. Type of series: functional, organism-based. The conditions noted are these: Betacoronavirus 1, NCI-H460, 72 h.

One may read the EC50 as the concentration at which the effect is half-maximal. A high value points to a need for much substance. For the molecule `CO[C@@H]1[C@@H](O[C@@H]2O[C@H](C)[C@@H](O[C@H]3C[C@@](C)(O)[C@@H](O)[C@H](C)O3)[C@H](N(C)C)[C@H]2OC(=O)CCCc2ccccc2)[C@@H](CC=O)C[C@@H](C)[C@@H](O[C@H]2CC[C@H](N(C)C)[C@@H](C)O2)/C=C/C=C/C[C@@H](C)OC(=O)C[C@H]1O`, the selectivity ratio in series [1] turned out to be 3.3. In addition, the CC50 at 72 h in series [2] was determined as 39.3 µM. For the same molecule, the EC50 in the series with Human coronavirus OC43 is 11.9 µM.
The like results for `CO[C@@H]1[C@@H](O[C@@H]2O[C@H](C)[C@@H](O[C@H]3C[C@@](C)(O)[C@@H](O)[C@H](C)O3)[C@H](N(C)C)[C@H]2OC(=O)C2CCCCC2)[C@@H](CC=O)C[C@@H](C)[C@@H](O[C@H]2CC[C@H](N(C)C)[C@@H](C)O2)/C=C/C=C/C[C@@H](C)OC(=O)C[C@H]1O` were, in that order, under 1.2, 15 µM and over 12.5 µM.
Consider `C=CC(=O)O[C@H]1[C@H](C)O[C@@H](O[C@H]2[C@H](N(C)C)[C@@H](OC(C)=O)[C@H](O[C@H]3[C@@H](CC=O)C[C@@H](C)[C@@H](O[C@H]4CC[C@H](N(C)C)[C@@H](C)O4)/C=C/C=C/C[C@@H](C)OC(=O)C[C@@H](O)[C@@H]3OC)O[C@@H]2C)C[C@@]1(C)O`, for which the selectivity ratio in series [1] was 4. In addition, in series [2], the CC50 at 72 h was 18.9 µM. Moreover, the EC50 in the series with Human coronavirus OC43 worked out at 4.78 µM.
The like results for `COc1ccc(CC(=O)O[C@H]2[C@H](C)O[C@@H](O[C@H]3[C@H](N(C)C)[C@@H](O)[C@H](O[C@H]4[C@@H](CC=O)C[C@@H](C)[C@@H](O[C@H]5CC[C@H](N(C)C)[C@@H](C)O5)/C=C/C=C/C[C@@H](C)OC(=O)C[C@@H](O)[C@@H]4OC)O[C@@H]3C)C[C@@]2(C)O)cc1` were, in that order, under 2.2, 27 µM and over 12.5 µM.
The like results for `COc1ccc(CCC(=O)O[C@H]2[C@H](O[C@H]3[C@@H](CC=O)C[C@@H](C)[C@@H](O[C@H]4CC[C@H](N(C)C)[C@@H](C)O4)/C=C/C=C/C[C@@H](C)OC(=O)C[C@@H](O)[C@@H]3OC)O[C@H](C)[C@@H](O[C@H]3C[C@@](C)(O)[C@@H](O)[C@H](C)O3)[C@@H]2N(C)C)cc1` were, in that order, 3, 13.8 µM and 4.52 µM.
As for `CO[C@@H]1[C@@H](O[C@@H]2O[C@H](C)[C@@H](O[C@H]3C[C@@](C)(O)[C@@H](O)[C@H](C)O3)[C@H](N(C)C)[C@H]2OC(C)=O)[C@@H](CC=O)C[C@@H](C)[C@@H](O[C@H]2CC[C@H](N(C)C)[C@@H](C)O2)/C=C/C=C/C[C@@H](C)OC(=O)C[C@H]1O`, in series [1], the selectivity ratio is over 6.71. Moreover, in series [2], the CC50 at 72 h was over 200 µM. Also, in the series with Human coronavirus OC43, the EC50 came out at 29.8 µM.
The like results for `CCC(=O)O[C@H]1[C@H](O[C@H]2[C@@H](CC=O)C[C@@H](C)[C@@H](O[C@H]3CC[C@H](N(C)C)[C@@H](C)O3)/C=C/C=C/C[C@@H](C)OC(=O)C[C@@H](O)[C@@H]2OC)O[C@H](C)[C@@H](O[C@H]2C[C@@](C)(O)[C@@H](O)[C@H](C)O2)[C@@H]1N(C)C` were, in that order, over 6.9, over 161 µM and 23.4 µM.
On to `CO[C@@H]1[C@@H](O[C@@H]2O[C@H](C)[C@@H](O[C@H]3C[C@@](C)(O)[C@@H](O)[C@H](C)O3)[C@H](N(C)C)[C@H]2OC(=O)CCc2ccccc2)[C@@H](CC=O)C[C@@H](C)[C@@H](O[C@H]2CC[C@H](N(C)C)[C@@H](C)O2)/C=C/C=C/C[C@@H](C)OC(=O)C[C@H]1O`, for which the selectivity ratio in series [1] is 4.8. For the same molecule, the CC50 at 72 h in series [2] is 18.9 µM. In the series on Human coronavirus OC43, this molecule returned an EC50 of 3.89 µM.
The like results for `CO[C@@H]1[C@@H](O[C@@H]2O[C@H](C)[C@@H](O[C@H]3C[C@@](C)(O)[C@@H](O)[C@H](C)O3)[C@H](N(C)C)[C@H]2OC(=O)/C=C/c2ccccc2)[C@@H](CC=O)C[C@@H](C)[C@@H](O[C@H]2CC[C@H](N(C)C)[C@@H](C)O2)/C=C/C=C/C[C@@H](C)OC(=O)C[C@H]1O` were, in that order, 3.8, 5.57 µM and 1.48 µM.
The like results for `CCCCCC(=O)O[C@H]1[C@H](O[C@H]2[C@@H](CC=O)C[C@@H](C)[C@@H](O[C@H]3CC[C@H](N(C)C)[C@@H](C)O3)/C=C/C=C/C[C@@H](C)OC(=O)C[C@@H](O)[C@@H]2OC)O[C@H](C)[C@@H](O[C@H]2C[C@@](C)(O)[C@@H](O)[C@H](C)O2)[C@@H]1N(C)C` were, in that order, 3.6, 18.2 µM and 5.05 µM.
With `CO[C@@H]1[C@@H](O[C@@H]2O[C@H](C)[C@@H](O[C@H]3C[C@@](C)(O)[C@@H](O)[C@H](C)O3)[C@H](N(C)C)[C@H]2OC(=O)C2CCCC2)[C@@H](CC=O)C[C@@H](C)[C@@H](O[C@H]2CC[C@H](N(C)C)[C@@H](C)O2)/C=C/C=C/C[C@@H](C)OC(=O)C[C@H]1O`, in series [1], the selectivity ratio is under 1.6. In series [2], the CC50 at 72 h stood at 20 µM. In the series with Human coronavirus OC43, the EC50 was over 12.5 µM.
As for `C=CC(=O)O[C@H]1[C@H](C)O[C@@H](O[C@H]2[C@H](N(C)C)[C@@H](O)[C@H](O[C@H]3[C@@H](CC=O)C[C@@H](C)[C@@H](O[C@H]4CC[C@H](N(C)C)[C@@H](C)O4)/C=C/C=C/C[C@@H](C)OC(=O)C[C@@H](O)[C@@H]3OC)O[C@@H]2C)C[C@@]1(C)O`, the selectivity ratio in series [1] turned out to be 3.2. In series [2], the CC50 at 72 h came to 38.4 µM. In the series on Human coronavirus OC43, a half-maximal effect (EC50) was put at 12 µM.
The like results for `CO[C@@H]1[C@@H](O[C@@H]2O[C@H](C)[C@@H](O[C@H]3C[C@@](C)(O)[C@@H](OC(=O)Cc4ccc(Cl)cc4)[C@H](C)O3)[C@H](N(C)C)[C@H]2OC(C)=O)[C@@H](CC=O)C[C@@H](C)[C@@H](O[C@H]2CC[C@H](N(C)C)[C@@H](C)O2)/C=C/C=C/C[C@@H](C)OC(=O)C[C@H]1O` were, in that order, under 1.2, 7.4 µM and over 6.25 µM.
The like results for `CCCCC(=O)O[C@H]1[C@H](C)O[C@@H](O[C@H]2[C@H](N(C)C)[C@@H](O)[C@H](O[C@H]3[C@@H](CC=O)C[C@@H](C)[C@@H](O[C@H]4CC[C@H](N(C)C)[C@@H](C)O4)/C=C/C=C/C[C@@H](C)OC(=O)C[C@@H](O)[C@@H]3OC)O[C@@H]2C)C[C@@]1(C)O` were, in that order, 6.1, 34 µM and 5.61 µM.
The like results for `CO[C@@H]1[C@@H](O[C@@H]2O[C@H](C)[C@@H](O[C@H]3C[C@@](C)(O)[C@@H](O)[C@H](C)O3)[C@H](N(C)C)[C@H]2OC(=O)c2ccc(F)c(C(F)(F)F)c2)[C@@H](CC=O)C[C@@H](C)[C@@H](O[C@H]2CC[C@H](N(C)C)[C@@H](C)O2)/C=C/C=C/C[C@@H](C)OC(=O)C[C@H]1O` were, in that order, 3.1, 5.52 µM and 1.79 µM.
Regarding `CO[C@@H]1[C@@H](O[C@@H]2O[C@H](C)[C@@H](O[C@H]3C[C@@](C)(O)[C@@H](O)[C@H](C)O3)[C@H](N(C)C)[C@H]2OC(=O)c2ccc(C(F)(F)F)cc2)[C@@H](CC=O)C[C@@H](C)[C@@H](O[C@H]2CC[C@H](N(C)C)[C@@H](C)O2)/C=C/C=C/C[C@@H](C)OC(=O)C[C@H]1O`, in series [1], the selectivity ratio amounted to 1.1. The CC50 at 72 h in series [2] was found to be 6.74 µM. For the same molecule, the response with Human coronavirus OC43 was half-maximal at 5.96 µM (EC50).
The like results for `CO[C@@H]1[C@@H](O[C@@H]2O[C@H](C)[C@@H](O[C@H]3C[C@@](C)(O)[C@@H](O)[C@H](C)O3)[C@H](N(C)C)[C@H]2OC(=O)CC(C)C)[C@@H](CC=O)C[C@@H](C)[C@@H](O[C@H]2CC[C@H](N(C)C)[C@@H](C)O2)/C=C/C=C/C[C@@H](C)OC(=O)C[C@H]1O` were, in that order, 3.5, 17.1 µM and 4.82 µM.
Consider `CCCC(=O)O[C@H]1[C@H](O[C@H]2[C@@H](CC=O)C[C@@H](C)[C@@H](O[C@H]3CC[C@H](N(C)C)[C@@H](C)O3)/C=C/C=C/C[C@@H](C)OC(=O)C[C@@H](O)[C@@H]2OC)O[C@H](C)[C@@H](O[C@H]2C[C@@](C)(O)[C@@H](O)[C@H](C)O2)[C@@H]1N(C)C`, for which the selectivity ratio in series [1] was found to be 7.8. For the same molecule, the CC50 at 72 h in series [2] turned out to be 68 µM. In the series on Human coronavirus OC43, this molecule returned an EC50 of 8.73 µM.
The like results for `CO[C@@H]1[C@@H](O[C@@H]2O[C@H](C)[C@@H](O[C@H]3C[C@@](C)(O)[C@@H](O)[C@H](C)O3)[C@H](N(C)C)[C@H]2OC(=O)CC(C)(C)C)[C@@H](CC=O)C[C@@H](C)[C@@H](O[C@H]2CC[C@H](N(C)C)[C@@H](C)O2)/C=C/C=C/C[C@@H](C)OC(=O)C[C@H]1O` were, in that order, 2.7, 13.4 µM and 4.89 µM.
Take `CCCC(=O)O[C@H]1[C@H](C)O[C@@H](O[C@H]2[C@H](N(C)C)[C@@H](O)[C@H](O[C@H]3[C@@H](CC=O)C[C@@H](C)[C@@H](O[C@H]4CC[C@H](N(C)C)[C@@H](C)O4)/C=C/C=C/C[C@@H](C)OC(=O)C[C@@H](O)[C@@H]3OC)O[C@@H]2C)C[C@@]1(C)O`: in series [1], the selectivity ratio amounted to 6.4. For the same molecule, the CC50 at 72 h in series [2] came out at 33.1 µM. This molecule showed a concentration for a half-maximal effect (EC50) in the series with Human coronavirus OC43 of 5.17 µM.
The like results for `COc1ccc(CC(=O)O[C@H]2[C@H](C)O[C@@H](O[C@H]3[C@H](N(C)C)[C@@H](OC(C)=O)[C@H](O[C@H]4[C@@H](CC=O)C[C@@H](C)[C@@H](O[C@H]5CC[C@H](N(C)C)[C@@H](C)O5)/C=C/C=C/C[C@@H](C)OC(=O)C[C@@H](O)[C@@H]4OC)O[C@@H]3C)C[C@@]2(C)O)cc1` were, in that order, under 2.1, 13.1 µM and over 6.25 µM.
In the case of `CC(C)C(=O)OC[C@H]1O[C@@H](n2ccc(NO)nc2=O)[C@H](O)[C@@H]1O` [MOLNUPIRAVIR], in series [1], the selectivity ratio was 196. The EC50 in the series with Human coronavirus OC43 was found to be 0.16 µM.
